Experiment: xn = mol fraction of the nth substance listed
Conditions: Liquid, Pycnometric method

Cn1ccnc1 [1-methylimidazole] + O=C=O
Conditions	mass density [kg/m3]
313.1 K, 11200 kPa, x1 = 0.0247	802
313.1 K, 11280 kPa, x1 = 0.0487	852
313.1 K, 11440 kPa, x1 = 0.0487	855
313.1 K, 11540 kPa, x1 = 0.0102	771
313.1 K, 11540 kPa, x1 = 0.1024	928
313.1 K, 11580 kPa, x1 = 0.0247	811
313.1 K, 11620 kPa, x1 = 0.0487	858
313.1 K, 11740 kPa, x1 = 0.1024	930
313.1 K, 11790 kPa, x1 = 0.0487	860
313.1 K, 11980 kPa, x1 = 0.0487	862
313.1 K, 11990 kPa, x1 = 0.1024	933
313.1 K, 12000 kPa, x1 = 0.0247	819
313.1 K, 12070 kPa, x1 = 0.0102	786
313.1 K, 12180 kPa, x1 = 0.0487	865
313.1 K, 12320 kPa, x1 = 0.1024	936
313.1 K, 12490 kPa, x1 = 0.0247	828
313.1 K, 12620 kPa, x1 = 0.1024	939
313.1 K, 12700 kPa, x1 = 0.0102	800
313.1 K, 12970 kPa, x1 = 0.1024	942
313.1 K, 13010 kPa, x1 = 0.0247	837
313.1 K, 13280 kPa, x1 = 0.1024	944
313.1 K, 13460 kPa, x1 = 0.0102	816
313.1 K, 13600 kPa, x1 = 0.0247	846
313.1 K, 13660 kPa, x1 = 0.1024	947
313.1 K, 14020 kPa, x1 = 0.1024	950
313.1 K, 14280 kPa, x1 = 0.0247	855
313.1 K, 14340 kPa, x1 = 0.0102	832
313.1 K, 14430 kPa, x1 = 0.1024	954
313.1 K, 14780 kPa, x1 = 0.1024	956
313.1 K, 14970 kPa, x1 = 0.0247	865
313.1 K, 15010 kPa, x1 = 0.0102	842
313.1 K, 15210 kPa, x1 = 0.1024	959
313.1 K, 15360 kPa, x1 = 0.0247	870
313.1 K, 15650 kPa, x1 = 0.1024	963
313.1 K, 15790 kPa, x1 = 0.0247	875
313.1 K, 16150 kPa, x1 = 0.1024	966
313.1 K, 16220 kPa, x1 = 0.0247	880
313.1 K, 16560 kPa, x1 = 0.1024	969
313.1 K, 16690 kPa, x1 = 0.0247	885
313.1 K, 17100 kPa, x1 = 0.1024	972
313.1 K, 17540 kPa, x1 = 0.1024	975
313.1 K, 18150 kPa, x1 = 0.1024	979
313.1 K, 18570 kPa, x1 = 0.1024	981
313.1 K, 18940 kPa, x1 = 0.1024	983
317.9 K, 9730 kPa, x1 = 0.0102	555
317.9 K, 9780 kPa, x1 = 0.0102	563
317.9 K, 9850 kPa, x1 = 0.0102	573
317.9 K, 9910 kPa, x1 = 0.0102	583
317.9 K, 9990 kPa, x1 = 0.0102	594
317.9 K, 10080 kPa, x1 = 0.0102	606
317.9 K, 10180 kPa, x1 = 0.0102	618
317.9 K, 10180 kPa, x1 = 0.0247	708
317.9 K, 10300 kPa, x1 = 0.0102	630
317.9 K, 10340 kPa, x1 = 0.0247	716
317.9 K, 10440 kPa, x1 = 0.0102	643
317.9 K, 10490 kPa, x1 = 0.0247	723
317.9 K, 10620 kPa, x1 = 0.0102	656
317.9 K, 10640 kPa, x1 = 0.0247	730
317.9 K, 10810 kPa, x1 = 0.0102	670
317.9 K, 10810 kPa, x1 = 0.0247	737
317.9 K, 11000 kPa, x1 = 0.0247	744
317.9 K, 11050 kPa, x1 = 0.0102	684
317.9 K, 11220 kPa, x1 = 0.0247	751
317.9 K, 11330 kPa, x1 = 0.0102	699
317.9 K, 11460 kPa, x1 = 0.0247	758
317.9 K, 11510 kPa, x1 = 0.0487	815
317.9 K, 11590 kPa, x1 = 0.0487	817
317.9 K, 11680 kPa, x1 = 0.0102	715
317.9 K, 11700 kPa, x1 = 0.0487	820
317.9 K, 11710 kPa, x1 = 0.0247	766
317.9 K, 11820 kPa, x1 = 0.0487	822
317.9 K, 11960 kPa, x1 = 0.0247	774
317.9 K, 11970 kPa, x1 = 0.0487	825
317.9 K, 12080 kPa, x1 = 0.0487	827
317.9 K, 12100 kPa, x1 = 0.0102	731
317.9 K, 12210 kPa, x1 = 0.0487	830
317.9 K, 12290 kPa, x1 = 0.0247	781
317.9 K, 12350 kPa, x1 = 0.0487	833
317.9 K, 12480 kPa, x1 = 0.0487	836
317.9 K, 12640 kPa, x1 = 0.0102	749
317.9 K, 12640 kPa, x1 = 0.0487	838
317.9 K, 12820 kPa, x1 = 0.0247	793
317.9 K, 12930 kPa, x1 = 0.0487	843
317.9 K, 13150 kPa, x1 = 0.1024	919
317.9 K, 13260 kPa, x1 = 0.0102	766
317.9 K, 13300 kPa, x1 = 0.0487	849
317.9 K, 13400 kPa, x1 = 0.1024	922
317.9 K, 13440 kPa, x1 = 0.0247	806
317.9 K, 13660 kPa, x1 = 0.0487	854
317.9 K, 13720 kPa, x1 = 0.1024	925
317.9 K, 13980 kPa, x1 = 0.1024	927
317.9 K, 14030 kPa, x1 = 0.0487	860
317.9 K, 14060 kPa, x1 = 0.0102	785
317.9 K, 14140 kPa, x1 = 0.0247	819
317.9 K, 14310 kPa, x1 = 0.1024	930
317.9 K, 14450 kPa, x1 = 0.0487	866
317.9 K, 14560 kPa, x1 = 0.1024	933
317.9 K, 14670 kPa, x1 = 0.0247	828
317.9 K, 14710 kPa, x1 = 0.1024	934
317.9 K, 14880 kPa, x1 = 0.1024	936
317.9 K, 15050 kPa, x1 = 0.0102	806
317.9 K, 15130 kPa, x1 = 0.1024	938
317.9 K, 15280 kPa, x1 = 0.0247	837
317.9 K, 15330 kPa, x1 = 0.1024	939
317.9 K, 15480 kPa, x1 = 0.1024	941
317.9 K, 15570 kPa, x1 = 0.0247	841
317.9 K, 15630 kPa, x1 = 0.1024	942
317.9 K, 15890 kPa, x1 = 0.0102	821
317.9 K, 15920 kPa, x1 = 0.0247	846
317.9 K, 15950 kPa, x1 = 0.1024	944
317.9 K, 16260 kPa, x1 = 0.0247	851
317.9 K, 16380 kPa, x1 = 0.1024	947
317.9 K, 16620 kPa, x1 = 0.0247	855
317.9 K, 16800 kPa, x1 = 0.1024	950
317.9 K, 16910 kPa, x1 = 0.0102	837
317.9 K, 17010 kPa, x1 = 0.0247	860
317.9 K, 17180 kPa, x1 = 0.1024	953
317.9 K, 17600 kPa, x1 = 0.1024	956
317.9 K, 18050 kPa, x1 = 0.1024	959
317.9 K, 18370 kPa, x1 = 0.1024	962
317.9 K, 18750 kPa, x1 = 0.1024	964
317.9 K, 18990 kPa, x1 = 0.1024	965
322.7 K, 10720 kPa, x1 = 0.0102	558
322.7 K, 10820 kPa, x1 = 0.0102	568
322.7 K, 10930 kPa, x1 = 0.0102	578
322.7 K, 11040 kPa, x1 = 0.0102	589
322.7 K, 11140 kPa, x1 = 0.0102	600
322.7 K, 11270 kPa, x1 = 0.0102	612
322.7 K, 11430 kPa, x1 = 0.0102	624
322.7 K, 11460 kPa, x1 = 0.0247	701
322.7 K, 11570 kPa, x1 = 0.0247	706
322.7 K, 11610 kPa, x1 = 0.0102	636
322.7 K, 11730 kPa, x1 = 0.0247	712
322.7 K, 11810 kPa, x1 = 0.0102	649
322.7 K, 11910 kPa, x1 = 0.0247	719
322.7 K, 12030 kPa, x1 = 0.0102	663
322.7 K, 12090 kPa, x1 = 0.0247	726
322.7 K, 12300 kPa, x1 = 0.0102	677
322.7 K, 12300 kPa, x1 = 0.0247	733
322.7 K, 12520 kPa, x1 = 0.0247	740
322.7 K, 12640 kPa, x1 = 0.0102	692
322.7 K, 12750 kPa, x1 = 0.0247	747

— the NIST ThermoML archive (doi:10.1021/je900387e)
